Measured values taken from patent publication US12528819B2 (priority 2016, dated 2026).

Biological target: T1, α5β2γ2 subtype GABAAR (Homo sapiens, UniProt P18507+P31644)
T1 construct: expressed in transfected cells
T1 sequence (P31644 32-462): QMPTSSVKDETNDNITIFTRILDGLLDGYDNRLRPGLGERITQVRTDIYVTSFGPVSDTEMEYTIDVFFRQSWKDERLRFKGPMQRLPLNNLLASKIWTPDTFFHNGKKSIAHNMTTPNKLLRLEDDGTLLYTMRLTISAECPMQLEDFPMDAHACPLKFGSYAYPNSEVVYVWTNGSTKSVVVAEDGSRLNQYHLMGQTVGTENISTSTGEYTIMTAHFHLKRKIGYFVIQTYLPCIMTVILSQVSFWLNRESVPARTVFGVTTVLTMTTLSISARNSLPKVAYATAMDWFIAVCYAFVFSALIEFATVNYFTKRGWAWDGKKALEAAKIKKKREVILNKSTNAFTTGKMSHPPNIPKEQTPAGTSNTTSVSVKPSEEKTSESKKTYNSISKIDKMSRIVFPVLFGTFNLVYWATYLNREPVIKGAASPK
T1 sequence (P47870 25-512 partner limits assumed): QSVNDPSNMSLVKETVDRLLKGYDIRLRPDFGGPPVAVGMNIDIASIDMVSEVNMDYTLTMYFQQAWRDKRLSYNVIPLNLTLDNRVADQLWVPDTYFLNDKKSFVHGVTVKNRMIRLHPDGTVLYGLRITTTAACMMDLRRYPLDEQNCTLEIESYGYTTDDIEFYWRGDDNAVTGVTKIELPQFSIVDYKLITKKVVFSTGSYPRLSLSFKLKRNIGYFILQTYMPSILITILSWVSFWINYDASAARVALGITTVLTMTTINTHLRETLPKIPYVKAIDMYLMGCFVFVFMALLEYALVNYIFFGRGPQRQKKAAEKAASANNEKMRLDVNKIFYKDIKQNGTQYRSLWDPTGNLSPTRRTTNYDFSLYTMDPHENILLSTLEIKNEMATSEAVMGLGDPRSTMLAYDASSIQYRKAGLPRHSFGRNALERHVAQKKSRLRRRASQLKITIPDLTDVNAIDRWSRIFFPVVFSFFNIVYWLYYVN
T1 sequence (P18507 40-467 limits assumed): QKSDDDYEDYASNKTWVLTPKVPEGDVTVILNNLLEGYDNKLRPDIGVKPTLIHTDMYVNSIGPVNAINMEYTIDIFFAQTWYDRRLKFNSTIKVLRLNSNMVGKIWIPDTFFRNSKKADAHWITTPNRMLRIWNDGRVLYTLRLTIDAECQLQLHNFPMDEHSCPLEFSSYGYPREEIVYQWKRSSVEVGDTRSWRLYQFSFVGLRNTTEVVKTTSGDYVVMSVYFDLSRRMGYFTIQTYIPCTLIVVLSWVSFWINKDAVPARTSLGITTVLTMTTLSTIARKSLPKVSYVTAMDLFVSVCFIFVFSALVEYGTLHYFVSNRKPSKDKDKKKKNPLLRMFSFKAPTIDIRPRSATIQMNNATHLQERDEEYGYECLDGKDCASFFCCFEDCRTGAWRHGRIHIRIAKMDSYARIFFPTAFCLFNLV
Assay: Positive allosteric modulator activity: potentiation of EC20 GABA current in oocytes
Assay type: cell-based
Conditions: read-out: GABA α5 Functional Data (potentiation), @ 100 nM, reported as ranges
Procedure: (B) Positive Allosteric Modulator Activity of Test Compounds on α5β2γ2 Subtype GABAAR
On day 1, 1 ng/32 nL of GABAA α5β2γ2 cDNA was injected into one oocyte. Test starts on day 2. The cDNA injected to the oocytes was a mix of alpha, beta and gamma, their ratio is 1:1:10 (by weight) and the total weight of the mixed 3 subunits to be injected in one oocyte was 1 ng in 32 nl volume. The injected oocytes can also be tested on day 3. In such case, the cDNA amount injected to the oocytes should be reduced by 20%.
Compounds of the present invention were tested using the following procedures.
• 1). 8 oocytes were placed in 8 chambers of OpusXpress and superfused with Modified Barth's Saline (MBS) at 3 mL/min. Glass electrodes back-filled with 3M KCl (0.5-3 megaohms) were used.
Control test (Diazepam or methyl 3,5-diphenylpyridazine-4-carboxylate) • 1). New oocytes was used to run new test. • 2). […] Oocytes were washed with MBS for 5-10 min. • 4). […] Itest was divided by IGABA to obtain potentiation (%). Test Compounds at Multiple Doses • 1). Repeat the above steps 1), 2) and 3) in the control test. • 2). […] Divide Itest by IGABA to obtain potentiation (%). • 3). Discard all tested oocytes, new oocytes were used and the above steps 1) and 2) were repeated to test second concentration of the same compound. Each oocyte was used for only one concentration test for a single test compound. The steps were repeated for other test compounds.

Structure (SMILES) | activation at 0.1 µM [%]
CC(C)c1nc(-c2ncn3c2Cn2c(COc4cccc(F)c4)nnc2-c2cc(F)ccc2-3)no1 [Compound 188] | 20 to 50
CC(C)c1nc(-c2ncn3c2Cn2c(COc4ccc(F)cc4)nnc2-c2cc(F)ccc2-3)no1 [Compound 189] | 20 to 50
Cc1cccc(C)c1OCc1nnc2n1Cc1c(-c3noc(C(C)C)n3)ncn1-c1ccc(F)cc1-2 [Compound 190] | 5 to 20
COc1ccc2c(c1)-c1nnc(COc3ccc(F)cc3)n1Cc1c(C#N)ncn1-2 [Compound 191] | 20 to 50
CCc1nc(-c2ncn3c2Cc2c(Cc4ccccc4)nnn2-c2cc(OC)ccc2-3)no1 [Compound 194] | > 50
CCc1nc(-c2ncn3c2Cc2c(Cc4ccc(F)cc4)nnn2-c2cc(OC)ccc2-3)no1 [Compound 195] | 20 to 50
COc1ccc2c(c1)-c1nnc(COc3cccc(F)c3)n1Cc1c(C#N)ncn1-2 [Compound 196] | 20 to 50
COCc1nnc2n1Cc1c(-c3nc(C)no3)ncn1-c1ccc(Cl)cc1-2 [Compound 198] | 20 to 50
FC(F)=Cc1ncn2c1Cn1c(COc3ccccc3)nnc1-c1cc(Cl)ccc1-2 [Compound 199] | 20 to 50
FC(F)c1ncn2c1Cn1c(COc3ccccc3)nnc1-c1cc(Cl)ccc1-2 [Compound 200] | 5 to 20
Clc1ccc2c(c1)-c1nnc(COc3ccccc3)n1Cc1c(Br)ncn1-2 [Compound 202] | 20 to 50
COc1ccc2c(c1)-c1nnc(COCc3cccnc3)n1Cc1c(-c3noc(C(C)C)n3)ncn1-2 [Compound 203] | 20 to 50
C#Cc1ncn2c1Cn1c(COc3ccccc3)nnc1-c1cc(Cl)ccc1-2 [Compound 205] | 20 to 50
COCc1nnc2n1Cc1c(-c3nc(C(C)C)no3)ncn1-c1ccc(Cl)cc1-2 [Compound 206] | 5 to 20
COc1ccc2c(c1)-n1nnc(Cc3ccccc3)c1Cc1c(C#N)ncn1-2 [Compound 207] | 20 to 50
COc1ccc2c(c1)-n1nnc(Cc3cccnc3)c1Cc1c(C#N)ncn1-2 [Compound 210] | 20 to 50
COc1ccc2c(c1)-n1nnc(C)c1Cc1c(Br)ncn1-2 [Compound 211] | 5 to 20
COc1ccc2c(c1)-n1nnc(Cc3ccccc3)c1Cc1c(Br)ncn1-2 [Compound 212] | 20 to 50
COc1ccc2c(c1)-n1nnc(Cc3ccc(F)cc3)c1Cc1c(Br)ncn1-2 [Compound 213] | 20 to 50
CCOCc1ncn2c1Cn1c(COC)nnc1-c1cc(Cl)ccc1-2 [Compound 215] | 5 to 20
COCc1nnc2n1Cc1c(Br)ncn1-c1ccc(Cl)cc1-2 [Compound 217] | 5 to 20
COc1ccc2c(c1)-n1nnc(COc3ccc(F)cc3)c1Cc1c(C#N)ncn1-2 [Compound 222] | 20 to 50
COc1ccc2c(c1)-n1nnc(COc3ccccc3F)c1Cc1c(C#N)ncn1-2 [Compound 223] | 5 to 20
COc1ccc2c(c1)-n1nnc(COc3ccccc3)c1Cc1c(C#N)ncn1-2 [Compound 224] | 20 to 50
COc1ccc2c(c1)-n1nnc(COc3cccc(Br)c3)c1Cc1c(C#N)ncn1-2 [Compound 225] | 20 to 50
N#Cc1ncn2c1Cc1c(COc3ccccc3)nnn1-c1cc(Cl)ccc1-2 [Compound 226] | 20 to 50
N#Cc1ncn2c1Cc1c(COc3cccc(F)c3)nnn1-c1cc(Cl)ccc1-2 [Compound 227] | 5 to 20

Structure (SMILES) | activation at 0.1 µM [%]
Fc1ccc2c(c1)-n1cnc(Br)c1Cc1c(Cc3ccccc3)nnn1-2 [Compound 229] | 5 to 20
COc1ccc2c(c1)-c1nnc(COc3ccccc3)n1Cc1c(Br)ncn1-2 [Compound 232] | 5 to 20
COCc1nnc2n1Cc1c(-c3cc(C)no3)ncn1-c1ccc(Cl)cc1-2 [Compound 233] | 5 to 20
C#Cc1ncn2c1Cn1c(COc3ccccc3)nnc1-c1cc(OC)ccc1-2 [Compound 236] | 5 to 20
COCc1nnc2n1Cc1c(C3=NCCO3)ncn1-c1ccc(Cl)cc1-2 [Compound 238] | 20 to 50
C#Cc1ncn2c1Cn1c(COc3cccnc3)nnc1-c1cc(OC)ccc1-2 [Compound 241] | 5 to 20
COCc1nnc2n1Cc1c(C3=NC(c4ccccc4)CO3)ncn1-c1ccc(Cl)cc1-2 (stereo not drawn) [Compound 242] | 5 to 20
COCc1nnc2n1Cc1c(C3=NC(C)CO3)ncn1-c1ccc(Cl)cc1-2 (stereo not drawn) [Compound 243] | 20 to 50
COCc1nnc2n1Cc1c(-c3nc(C)co3)ncn1-c1ccc(Cl)cc1-2 [Compound 244] | 5 to 20
COCc1nnc2n1Cc1c(-c3nc(-c4ccccc4)co3)ncn1-c1ccc(Cl)cc1-2 [Compound 245] | 5 to 20
COCc1nnc2n1Cc1c(-c3ncco3)ncn1-c1ccc(Cl)cc1-2 [Compound 249] | 20 to 50
COCc1nnc2n1Cc1c(C3=N[C@@H](c4ccccc4)CO3)ncn1-c1ccc(Cl)cc1-2 [Compound 264] | 20 to 50
CC(C)OCc1nnc2n1Cc1c(C3=N[C@H](c4ccccc4)CO3)ncn1-c1ccc(Cl)cc1-2 [Compound 268] | 5 to 20
CCOCc1nnc2n1Cc1c(C3=N[C@H](c4ccccc4)CO3)ncn1-c1ccc(Cl)cc1-2 [Compound 271] | > 50
COCc1nnc2n1Cc1c(C#Cc3ccccc3)ncn1-c1ccc(Cl)cc1-2 [Compound 285] | 5 to 20
COc1ccc2c(c1)-n1nncc1Cc1c(C3=N[C@H](c4ccccc4)CO3)ncn1-2 [Compound 290] | 20 to 50
COCc1nnc2n1Cc1c(C#Cc3ccccc3C)ncn1-c1ccc(Cl)cc1-2 [Compound 293] | 20 to 50
C#Cc1ccc2c(c1)-c1nnc(COC)n1Cc1c(C3=N[C@@H](c4ccccc4)CO3)ncn1-2 [Compound 301] | 5 to 20
C#Cc1ccc2c(c1)-c1nnc(COC)n1Cc1c(-c3nc(-c4ccccc4)co3)ncn1-2 [Compound 302] | 5 to 20
FC(F)(F)COCc1nnc2n1Cc1c(C3=N[C@@H](c4ccccc4)CO3)ncn1-c1ccc(Cl)cc1-2 [Compound 304] | 5 to 20
CCOC(=O)c1ncn2c1Cn1c(COCC(F)(F)F)nnc1-c1cc(Cl)ccc1-2 [Compound 308] | 5 to 20
Cc1ccccc1C#Cc1ncn2c1Cn1c(COC(C)C)nnc1-c1cc(Cl)ccc1-2 [Compound 310] | 5 to 20
CCOCc1nnc2n1Cc1c(C#Cc3ccccc3C)ncn1-c1ccc(Cl)cc1-2 [Compound 311] | 5 to 20
FC(F)(F)COCc1nnc2n1Cc1c(-c3nc(-c4ccccc4)co3)ncn1-c1ccc(Cl)cc1-2 [Compound 313] | 20 to 50
COCc1nnc2n1Cc1c(C3=N[C@@H](c4ccccc4F)CO3)ncn1-c1ccc(Cl)cc1-2 [Compound 319] | 20 to 50
COCc1nnc2n1Cc1c(C3=N[C@@H](c4ccc(F)cc4)CO3)ncn1-c1ccc(Cl)cc1-2 [Compound 320] | 20 to 50
COCc1nnc2n1Cc1c(-c3nc(-c4ccccc4F)co3)ncn1-c1ccc(Cl)cc1-2 [Compound 323] | 20 to 50
